Reference: patent US20240150360A1 (THE REGENTS OF THE UNIVERSITY OF MICHIGAN, priority 2021, published 2024)

Experiments:
22Rv1 cells = test: Cell growth inhibition assay (CellTiter-Glo) in 22Rv1; assay type: cell-based, human; settings: Homo sapiens, 22Rv1, 96 h, 22Rv1 cells, 96 h incubation; read-out: Cell Growth Inhibition (IC50) 22Rv1
How it was run: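 22Rv1 prostate cancer cells (passages 3-8, DMEM with 10% FBS) were seeded at 4000 cells/well with compound, 3-fold dilutions from 10 μM final. After 96 h at 37° C and 5% CO2, growth was read by CellTiter-Glo 2.0 luminescence.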

P300 = target: T1, P300 (Homo sapiens, UniProt Q09472); test: P300 degradation in 22Rv1 cells (5 h); assay type: cell-based; settings: 22Rv1 cells, 5 h; for Dmax: read-out: P300 Degradation (22Rv1, 5 h) DCmax
T1 construct: endogenous in cells; host or cells: 22Rv1 (ATCC CRL-2505) human prostate cancer cells
Text: (§1) Biological Assays. […] Cells with 3-8 passages after purchase were used in experiments.

CBP = target: T2, CBP (Homo sapiens, UniProt Q92793); test: CBP degradation in 22Rv1 cells (5 h); assay type: cell-based; settings: 22Rv1 cells, 5 h; for Dmax: 22Rv1, 5 h, read-out: CBP Degradation (22Rv1, 5 h) DCmax
T2 construct: endogenous in cells; host or cells: 22Rv1 (ATCC CRL-2505) human prostate cancer cells
Text: as §1

HL60 = test: Cell growth inhibition in HL60; assay type: cell-based; settings: Homo sapiens, HL-60, HL60 cells; read-out: Cell Growth Inhibition (IC50) HL60

T2 sequence (Q92793 whole entry): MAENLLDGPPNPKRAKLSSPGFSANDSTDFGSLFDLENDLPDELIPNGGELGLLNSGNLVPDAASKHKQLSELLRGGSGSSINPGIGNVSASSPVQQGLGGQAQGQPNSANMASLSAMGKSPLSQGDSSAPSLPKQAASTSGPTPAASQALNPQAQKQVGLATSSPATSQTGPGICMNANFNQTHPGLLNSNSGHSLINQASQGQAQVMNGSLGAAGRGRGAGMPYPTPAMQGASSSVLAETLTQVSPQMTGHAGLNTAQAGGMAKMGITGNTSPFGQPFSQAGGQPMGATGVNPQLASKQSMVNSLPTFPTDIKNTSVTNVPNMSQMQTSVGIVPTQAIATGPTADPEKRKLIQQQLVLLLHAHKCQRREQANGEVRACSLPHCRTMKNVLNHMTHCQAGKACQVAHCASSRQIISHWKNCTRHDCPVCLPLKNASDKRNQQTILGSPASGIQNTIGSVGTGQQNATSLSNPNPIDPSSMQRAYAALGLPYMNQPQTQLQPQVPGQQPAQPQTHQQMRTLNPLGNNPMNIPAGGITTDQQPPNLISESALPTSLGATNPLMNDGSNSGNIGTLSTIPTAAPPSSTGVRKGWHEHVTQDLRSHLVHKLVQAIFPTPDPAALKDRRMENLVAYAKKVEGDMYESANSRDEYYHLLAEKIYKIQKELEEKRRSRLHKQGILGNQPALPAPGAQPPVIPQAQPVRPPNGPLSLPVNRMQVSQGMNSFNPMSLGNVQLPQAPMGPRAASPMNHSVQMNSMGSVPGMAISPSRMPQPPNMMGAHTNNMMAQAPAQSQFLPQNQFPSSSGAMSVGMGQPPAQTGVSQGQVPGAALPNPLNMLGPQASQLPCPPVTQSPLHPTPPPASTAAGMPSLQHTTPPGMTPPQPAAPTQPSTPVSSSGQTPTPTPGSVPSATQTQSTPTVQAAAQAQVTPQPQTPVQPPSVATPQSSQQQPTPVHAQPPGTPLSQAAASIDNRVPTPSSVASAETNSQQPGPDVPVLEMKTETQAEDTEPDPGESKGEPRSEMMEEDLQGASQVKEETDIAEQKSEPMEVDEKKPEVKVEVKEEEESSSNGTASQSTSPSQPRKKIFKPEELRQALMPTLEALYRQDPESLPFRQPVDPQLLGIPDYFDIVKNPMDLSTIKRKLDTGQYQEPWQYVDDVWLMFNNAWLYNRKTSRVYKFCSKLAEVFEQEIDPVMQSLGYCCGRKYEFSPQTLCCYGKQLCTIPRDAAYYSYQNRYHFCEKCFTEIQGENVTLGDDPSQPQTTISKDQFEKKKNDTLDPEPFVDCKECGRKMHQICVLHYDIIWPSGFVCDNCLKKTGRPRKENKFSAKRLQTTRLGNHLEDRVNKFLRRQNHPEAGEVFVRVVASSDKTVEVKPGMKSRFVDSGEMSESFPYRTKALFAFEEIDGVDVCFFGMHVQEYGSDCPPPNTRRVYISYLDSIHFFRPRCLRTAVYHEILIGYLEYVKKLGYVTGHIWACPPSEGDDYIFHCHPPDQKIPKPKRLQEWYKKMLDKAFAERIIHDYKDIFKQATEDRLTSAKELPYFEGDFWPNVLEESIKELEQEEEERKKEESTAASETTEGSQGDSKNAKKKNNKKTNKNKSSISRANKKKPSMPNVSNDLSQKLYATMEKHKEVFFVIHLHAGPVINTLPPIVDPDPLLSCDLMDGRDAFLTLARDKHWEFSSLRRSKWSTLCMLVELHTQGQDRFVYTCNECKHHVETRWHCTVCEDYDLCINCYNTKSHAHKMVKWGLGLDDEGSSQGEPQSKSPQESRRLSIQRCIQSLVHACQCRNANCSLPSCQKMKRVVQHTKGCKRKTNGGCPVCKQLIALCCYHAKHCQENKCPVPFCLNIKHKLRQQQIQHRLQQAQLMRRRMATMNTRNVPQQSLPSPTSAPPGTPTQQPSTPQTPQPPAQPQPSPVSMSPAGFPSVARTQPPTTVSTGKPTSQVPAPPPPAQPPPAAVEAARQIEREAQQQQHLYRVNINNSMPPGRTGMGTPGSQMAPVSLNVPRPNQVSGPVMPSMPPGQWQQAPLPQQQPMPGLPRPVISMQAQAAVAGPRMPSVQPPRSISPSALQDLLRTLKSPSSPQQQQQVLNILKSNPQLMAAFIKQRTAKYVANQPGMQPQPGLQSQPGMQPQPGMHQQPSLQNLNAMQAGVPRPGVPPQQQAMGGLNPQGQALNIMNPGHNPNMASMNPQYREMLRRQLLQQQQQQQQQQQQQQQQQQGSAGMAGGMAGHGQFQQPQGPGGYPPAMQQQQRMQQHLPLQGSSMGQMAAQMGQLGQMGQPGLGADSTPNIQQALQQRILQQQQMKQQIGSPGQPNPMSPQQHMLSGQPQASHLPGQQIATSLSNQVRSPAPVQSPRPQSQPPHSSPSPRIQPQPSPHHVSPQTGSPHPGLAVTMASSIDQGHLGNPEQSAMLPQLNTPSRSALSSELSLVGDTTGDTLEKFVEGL
T1 sequence (Q09472 whole entry): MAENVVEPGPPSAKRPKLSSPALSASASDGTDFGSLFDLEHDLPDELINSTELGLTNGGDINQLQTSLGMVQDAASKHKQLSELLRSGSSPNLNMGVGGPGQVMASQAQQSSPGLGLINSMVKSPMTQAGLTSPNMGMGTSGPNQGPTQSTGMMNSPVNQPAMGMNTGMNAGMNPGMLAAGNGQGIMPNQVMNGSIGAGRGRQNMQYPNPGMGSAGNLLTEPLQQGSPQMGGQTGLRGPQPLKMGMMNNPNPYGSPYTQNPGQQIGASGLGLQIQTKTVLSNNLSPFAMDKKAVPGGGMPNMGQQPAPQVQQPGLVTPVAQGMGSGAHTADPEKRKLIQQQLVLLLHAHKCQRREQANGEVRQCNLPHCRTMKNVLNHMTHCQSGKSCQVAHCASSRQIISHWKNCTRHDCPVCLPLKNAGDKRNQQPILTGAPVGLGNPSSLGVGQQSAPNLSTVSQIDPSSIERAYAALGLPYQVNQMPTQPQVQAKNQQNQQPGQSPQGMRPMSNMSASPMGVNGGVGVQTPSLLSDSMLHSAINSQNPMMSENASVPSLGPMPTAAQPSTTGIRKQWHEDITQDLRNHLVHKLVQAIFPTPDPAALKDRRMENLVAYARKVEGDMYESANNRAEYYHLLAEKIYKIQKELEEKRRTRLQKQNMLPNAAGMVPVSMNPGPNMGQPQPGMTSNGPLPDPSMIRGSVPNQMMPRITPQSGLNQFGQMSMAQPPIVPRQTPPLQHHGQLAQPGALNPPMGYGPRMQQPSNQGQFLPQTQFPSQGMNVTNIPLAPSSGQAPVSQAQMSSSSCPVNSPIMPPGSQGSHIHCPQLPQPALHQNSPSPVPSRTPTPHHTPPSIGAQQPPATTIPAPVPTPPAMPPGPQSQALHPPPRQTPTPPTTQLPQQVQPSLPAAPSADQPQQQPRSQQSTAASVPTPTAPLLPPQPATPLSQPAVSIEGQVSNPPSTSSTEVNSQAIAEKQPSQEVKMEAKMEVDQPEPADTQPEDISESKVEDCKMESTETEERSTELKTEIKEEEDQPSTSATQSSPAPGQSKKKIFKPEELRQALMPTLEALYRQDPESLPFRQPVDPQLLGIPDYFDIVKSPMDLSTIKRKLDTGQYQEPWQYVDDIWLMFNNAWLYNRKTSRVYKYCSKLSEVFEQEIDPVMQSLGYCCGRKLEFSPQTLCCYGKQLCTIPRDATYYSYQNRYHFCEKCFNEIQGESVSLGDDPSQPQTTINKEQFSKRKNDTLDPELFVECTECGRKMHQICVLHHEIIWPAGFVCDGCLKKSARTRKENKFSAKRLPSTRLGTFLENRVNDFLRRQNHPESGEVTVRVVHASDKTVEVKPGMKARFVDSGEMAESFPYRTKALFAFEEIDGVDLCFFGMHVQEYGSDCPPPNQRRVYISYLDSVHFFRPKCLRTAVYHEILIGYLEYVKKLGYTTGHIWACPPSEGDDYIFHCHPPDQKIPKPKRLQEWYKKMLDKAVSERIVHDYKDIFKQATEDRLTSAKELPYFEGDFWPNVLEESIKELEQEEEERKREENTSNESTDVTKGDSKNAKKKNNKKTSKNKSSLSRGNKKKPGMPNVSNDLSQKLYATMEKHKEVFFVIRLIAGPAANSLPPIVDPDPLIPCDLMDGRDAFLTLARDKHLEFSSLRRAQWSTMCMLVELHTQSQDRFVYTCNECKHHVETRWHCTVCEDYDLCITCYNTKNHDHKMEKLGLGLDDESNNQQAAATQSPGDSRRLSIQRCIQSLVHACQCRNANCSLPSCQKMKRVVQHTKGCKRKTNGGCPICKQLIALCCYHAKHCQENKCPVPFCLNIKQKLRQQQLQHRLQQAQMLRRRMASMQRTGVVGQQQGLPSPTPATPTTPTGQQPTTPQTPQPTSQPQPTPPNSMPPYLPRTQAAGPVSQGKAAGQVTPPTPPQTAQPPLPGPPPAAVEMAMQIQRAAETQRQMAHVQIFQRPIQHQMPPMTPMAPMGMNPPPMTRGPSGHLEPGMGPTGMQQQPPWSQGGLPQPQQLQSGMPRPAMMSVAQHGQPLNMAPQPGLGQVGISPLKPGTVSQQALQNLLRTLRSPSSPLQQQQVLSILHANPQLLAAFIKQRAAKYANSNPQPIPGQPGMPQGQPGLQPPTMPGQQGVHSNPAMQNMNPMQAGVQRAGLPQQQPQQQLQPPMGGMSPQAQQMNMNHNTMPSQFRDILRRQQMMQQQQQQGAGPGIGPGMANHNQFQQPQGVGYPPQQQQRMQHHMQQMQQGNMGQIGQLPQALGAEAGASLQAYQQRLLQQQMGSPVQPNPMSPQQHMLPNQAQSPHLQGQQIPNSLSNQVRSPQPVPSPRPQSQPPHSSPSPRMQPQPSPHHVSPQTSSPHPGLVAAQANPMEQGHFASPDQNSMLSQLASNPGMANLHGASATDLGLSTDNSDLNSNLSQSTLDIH

IC50 (22Rv1 cells)	DC50 (P300)	Dmax (P300)	Dmax (CBP)	DC50 (CBP)	IC50 (HL60)	Compound
> 10000 nM	> 1000 nM	< 50%	< 50%	> 1000 nM	> 10000 nM	CC(=O)N1Cc2c(N3CCCc4cc(-c5cnn(C)c5)c(C(F)F)cc43)nn(C3CCN(C(=O)CN4Cc5cc6c(cc5C4)C(=O)N(C4CCC(=O)NC4=O)C6=O)CC3)c2C(C)(C)C1 (stereo not drawn) [CP-084, 6-(2-(4-(5-acetyl-3-(7-(difluoromethyl)-6-(1-methyl-1H-pyrazol-4-yl)-3,4-dihydroquinolin-1(2H)-yl)-7,7-dimethyl-4,5,6,7-tetrahydro-1H-pyrazolo[4,3-c]pyridin-1-yl)piperidin-1-yl)-2-oxoethyl)-2-(2,6-dioxopiperidin-3-yl)-6,7-dihydropyrrolo[3,4-f]isoindole-1,3(2H,5H)-dione]
> 10000 nM	< 10 nM	> 70%	> 90%	< 10 nM	< 1000 nM	CC(=O)N1CCc2c(c(-c3cccc4ccccc34)nn2C2CCN(C(=O)CN3CCc4cc5c(cc4C3)C(=O)N(C3CCC(=O)NC3=O)C5=O)CC2)C1 (stereo not drawn) [CP-076, 6-(2-(4-(5-acetyl-3-(naphthalen-1-yl)-4,5,6,7-tetrahydro-1H-pyrazolo[4,3-c]pyridin-1-yl)piperidin-1-yl)-2-oxoethyl)-2-(2,6-dioxopiperidin-3-yl)-5,6,7,8-tetrahydro-1H-pyrrolo[3,4-g]isoquinoline-1,3(2H)-dione]
> 10000 nM	> 1000 nM	< 50%	< 50%	> 1000 nM	> 10000 nM	Cc1noc(C)c1-c1ccc2c(c1)nc([C@@H]1CCCC(=O)N1c1ccc(F)c(F)c1)n2C1CCN(C(=O)CCCN2Cc3cc4c(cc3C2)C(=O)N(C2CCC(=O)NC2=O)C4=O)CC1 (stereo partly drawn) [CP-066, 6-(4-(4-(2-((S)-1-(3,4-difluorophenyl)-6-oxopiperidin-2-yl)-5-(3,5-dimethylisoxazol-4-yl)-1H-benzo[d]imidazol-1-yl)piperidin-1-yl)-4-oxobutyl)-2-(2,6-dioxopiperidin-3-yl)-6,7-dihydropyrrolo[3,4-f]isoindole-1,3(2H,5H)-dione]
< 1000 nM	< 10 nM	> 90%	> 90%	< 10 nM	< 100 nM	CC(=O)N1CCc2c(c(N3CCCc4cc(-c5cnn(C)c5)c(C(F)F)cc43)nn2C[C@H]2CC[C@H](N3CCc4cc5c(cc4C3)C(=O)N(C3CCC(=O)NC3=O)C5=O)CC2)C1 (stereo partly drawn) [CP-041, 6-(4-((5-acetyl-3-(7-(difluoromethyl)-6-(1-methyl-1H-pyrazol-4-yl)-3,4-dihydroquinolin-1(2H)-yl)-4,5,6,7-tetrahydro-1H-pyrazolo[4,3-c]pyridin-1-yl)methyl)cyclohexyl)-2-(2,6-dioxopiperidin-3-yl)-5,6,7,8-tetrahydro-1H-pyrrolo[3,4-g]isoquinoline-1,3(2H)-dione]
< 1000 nM	< 10 nM	> 90%	> 90%	< 10 nM	< 1000 nM	CC(=O)N1CCc2c(c(N3CCCc4cc5c(cc43)CCCC5)nn2C2CCN(C(=O)CN3Cc4cc5c(cc4C3)C(=O)N(C3CCC(=O)NC3=O)C5=O)CC2)C1 (stereo not drawn) [CP-077, 6-(2-(4-(5-acetyl-3-(3,4,6,7,8,9-hexahydrobenzo[g]quinolin-1(2H)-yl)-4,5,6,7-tetrahydro-1H-pyrazolo[4,3-c]pyridin-1-yl)piperidin-1-yl)-2-oxoethyl)-2-(2,6-dioxopiperidin-3-yl)-6,7-dihydropyrrolo[3,4-f]isoindole-1,3(2H,5H)-dione]
< 1000 nM	< 10 nM	> 70%	> 90%	< 10 nM	< 1000 nM	CC(=O)N1CCc2c(c(N3CCCc4cc5c(cc43)CCCC5)nn2C2CCN(C(=O)CN3CCc4cc5c(cc4C3)C(=O)N(C3CCC(=O)NC3=O)C5=O)CC2)C1 (stereo not drawn) [CP-078, 6-(2-(4-(5-acetyl-3-(3,4,6,7,8,9-hexahydrobenzo[g]quinolin-1(2H)-yl)-4,5,6,7-tetrahydro-1H-pyrazolo[4,3-c]pyridin-1-yl)piperidin-1-yl)-2-oxoethyl)-2-(2,6-dioxopiperidin-3-yl)-5,6,7,8-tetrahydro-1H-pyrrolo[3,4-g]isoquinoline-1,3(2H)-dione]
< 1000 nM	< 10 nM	> 70%	> 90%	< 10 nM	< 100 nM	CC(=O)N1CCc2c(c(N3CCCc4cc(CCC(C)C)c(C(F)F)cc43)nn2C2CCN(C(=O)CN3Cc4cc5c(cc4C3)C(=O)N(C3CCC(=O)NC3=O)C5=O)CC2)C1 (stereo not drawn) [CP-026, 6-(2-(4-(5-acetyl-3-(7-(difluoromethyl)-6-isopentyl-3,4-dihydroquinolin-1(2H)-yl)-4,5,6,7-tetrahydro-1H-pyrazolo[4,3-c]pyridin-1-yl)piperidin-1-yl)-2-oxoethyl)-2-(2,6-dioxopiperidin-3-yl)-6,7-dihydropyrrolo[3,4-f]isoindole-1,3(2H,5H)-dione]
< 100 nM	< 10 nM	> 90%	> 90%	< 10 nM	< 100 nM	CC(=O)N1CCc2c(c(N3CCCc4cc(-c5ccccc5)c(C(F)F)cc43)nn2C2CCN(C(=O)CN3Cc4cc5c(cc4C3)C(=O)N(C3CCC(=O)NC3=O)C5=O)CC2)C1 (stereo not drawn) [CP-022, 6-(2-(4-(5-acetyl-3-(7-(difluoromethyl)-6-phenyl-3,4-dihydroquinolin-1(2H)-yl)-4,5,6,7-tetrahydro-1H-pyrazolo[4,3-c]pyridin-1-yl)piperidin-1-yl)-2-oxoethyl)-2-(2,6-dioxopiperidin-3-yl)-6,7-dihydropyrrolo[3,4-f]isoindole-1,3(2H,5H)-dione]
< 100 nM	< 10 nM	> 90%	> 90%	< 10 nM	< 100 nM	CC(=O)N1CCc2c(c(N3CCCc4cc(-c5cnn(C)c5)c(C(F)F)cc43)nn2C2CCC(N3CCc4cc5c(cc4C3)C(=O)N(C3CCC(=O)NC3=O)C5=O)CC2)C1 (stereo not drawn) [CP-038, 6-(4-(5-acetyl-3-(7-(difluoromethyl)-6-(1-methyl-1H-pyrazol-4-yl)-3,4-dihydroquinolin-1(2H)-yl)-4,5,6,7-tetrahydro-1H-pyrazolo[4,3-c]pyridin-1-yl)cyclohexyl)-2-(2,6-dioxopiperidin-3-yl)-5,6,7,8-tetrahydro-1H-pyrrolo[3,4-g]isoquinoline-1,3(2H)-dione]
< 1000 nM	> 1000 nM	< 50%	> 50%	< 1000 nM	< 1000 nM	Cn1cc(-c2cc3c(cc2C(F)F)N(c2nn(C4CCN(C(=O)CN5Cc6cc7c(cc6C5)C(=O)N(C5CCC(=O)NC5=O)C7=O)CC4)c4c2CN(C(=O)C(F)F)CC4)CCC3)cn1 (stereo not drawn) [CP-056, 6-(2-(4-(5-(2,2-difluoroacetyl)-3-(7-(difluoromethyl)-6-(1-methyl-1H-pyrazol-4-yl)-3,4-dihydroquinolin-1(2H)-yl)-4,5,6,7-tetrahydro-1H-pyrazolo[4,3-c]pyridin-1-yl)piperidin-1-yl)-2-oxoethyl)-2-(2,6-dioxopiperidin-3-yl)-6,7-dihydropyrrolo[3,4-f]isoindole-1,3(2H,5H)-dione]
